Data on 20 compounds can be found in patent US8497283B2, “Autotaxin inhibitors” (Merck Patent GmbH, priority 2009, dated 2013).

SMILES strings stand for the structures.

In this assay the target is T1, recombinant autotaxin (Homo sapiens, UniProt Q13822).
T1 construct: made in house; host or cells: Hi5 insect cells (baculovirus)
Put plainly: Autotaxin assay (Amplex Red fluorescence, LPC substrate). Format: biochemical. As to conditions: for IC50: ten serial 1:3 dilutions starting at 30 μM, duplicates, 75 μM LPC, values given as upper bounds; for % CTRL (1E−05): percent of uninhibited control (100%) at 1E−05 M compound. How it is done:
Autotaxin activity is measured indirectly by means of Amplex Red Reagent. In this course, Amplex Red is measured as fluorogenic indicator for generated H2O2. Autotaxin converts substrate lysophosphatidylcholine (LPC) to phosphocholine and lysophosphatidylic acid (LPA). After the conversion phosphocholine is reacted with alkaline phosphatase to obtain inorganic phosphate and choline. During the next step choline is oxidized with choline oxidase to yield betaine, whereby H2O2 is generated. H2O2 reacts with Amplex Red Reagent in the presence of peroxidase (Horseradish peroxidase) in an 1:1 stochiometry and yields highly fluorescent resorufin. The generated fluorescence is measured in a reaction-dependent kinetic mode in order to enable subtraction of fluorescence signals of possible other fluorescent compounds that are not part of the reaction from total measured fluorescence.
1.5 μl of a standard solution or of the compounds of the invention are dissolved in 20 mM Hepes pH 7.2 with maximally 7.7% DMSO in individual concentrations. The resulting solution is pre-incubated together with 10 μl (16 ng) of highly purified recombinant autotaxin in a black 384-hole microtiter plate for 30 min at 22° C.
Thereafter, the reaction is started through the addition of 5 μl L-a-lysophosphatidyl-choline (LPC), whereby the final concentration of LPC is 75 μM. The mixture is incubated for 90 min. at 37° C. After the incubation Amplex Red Reagent, peroxidase (Horseradish peroxidase) and choline oxidase are added. The fluorescence is immediately measured at a wavelength of 612 nm with an excitation wavelength of 485 nm in a “Tecan Ultra multimode” fluorescence reader. The activity of autotaxin is indirectly calculated via the amount of detected generated H2O2.
For IC50 analysis, ten serial 1:3 dilutions starting at 30 μM for each compound were run in duplicates.
IC50 values were calculated on normalized data. For normalization, control wells were added to each assay plate and the signal of uninhibited control wells was set to 100%, whereas the signal inhibited by 500 μM C14 LPA, (Avanti Polar Lipids, Cat#857120P) was set to 0%. Curves were fitted and IC50 values calculated by the following model using proprietory analysis software: Y=Bottom+(100−Bottom)/(1+10^((Log IC50−X)*HillSlope))
Where X is the logarithm of concentration. Y is the response;
Y starts at Bottom and goes to Top with a sigmoid shape.
Protein: Recombinant autotaxin (baculoviral Hi5 expression)
Substrate: L-a-lysophosphatidyl choline (chicken egg); Avanti Polar Lipids #830071P
Standard: C14 LPA, Avanti Polar Lipids, Cat#857120P
Detection Reagent Amplex Red Reagent; Invitrogen #A12222; dissolved in 1.923 ml of DMSO peroxidase Type VI-A (horseradish), Sigma #P6782; dissolved in 7.45 ml of test buffer, Choline Oxidase; Sigma #C5896; dissolved in 2.47 ml test buffer
Detection Reagent Mix: 1:100 dilution of Amplex Red Regent in test buffer
Test buffer: 200 mM Tris-HCl, Merck, Cat #1.08219, pH 7.9; 0.1% BSA, lipid free, Roche Cat#775835

In general, IC50 refers to the concentration that inhibits the measured activity by half. As to `NC(=O)c1c(NC(=O)Nc2ccc(Cl)cc2)sc2c1CCN(C(=O)c1ccc3[nH]nnc3c1)C2` [Compound 1, 6-(1H-Benzotriazole-5-carbonyl)-2-[3-(4-chloro-phenyl)-ureido]-4,5,6,7-tetrahydro-thieno[2,3-c]pyridine-3-carboxylic acid amide], the IC50 was < 1000 nM. With `NC(=O)c1c(NC(=O)Nc2ccc(Cl)cc2)sc2c1CCN(C(=O)c1ccc3[nH]c(=O)oc3c1)C2` [Compound 2, 2-[3-(4-Chloro-phenyl)-ureido]-6-(2-oxo-2,3-dihydro-benzooxazole-6-carbonyl)-4,5,6,7-tetrahydro-thieno[2,3-c]pyridine-3-carboxylic acid amide], the IC50 was < 1000 nM. On the same count and under the same terms, under `NC(=O)c1c(NC(=O)Nc2ccc(C(F)(F)F)cc2)sc2c1CCN(C(=O)c1ccc3[nH]nnc3c1)C2` [Compound 3, 6-(1H-Benzotriazole-5-carbonyl)-2-[3-(4-trifluoromethyl-phenyl)-ureido]-4,5,6,7-tetrahydro-thieno[2,3-c]pyridine-3-carboxylic acid amide] stands < 1000 nM; under `CC(C)c1ccc(NC(=O)Nc2sc3c(c2C(N)=O)CCN(C(=O)c2ccc4[nH]nnc4c2)C3)cc1` [Compound 4, 6-(1H-Benzotriazole-5-carbonyl)-2-[3-(4-isopropyl-phenyl)-ureido]-4,5,6,7-tetrahydro-thieno[2,3-c]pyridine-3-carboxylic acid amide], < 1000 nM.

On to `NC(=O)c1c(NC(=O)CCc2ccc(Cl)cc2)sc2c1CCN(C(=O)c1ccc3[nH]nnc3c1)C2` [Compound 5, 6-(1H-Benzotriazole-5-carbonyl)-2-[3-(4-chloro-phenyl)-propionylamino]-4,5,6,7-tetrahydro-thieno[2,3-c]pyridine-3-carboxylic acid amide], for which the IC50 was < 1000 nM. Still for that read-out and setting: under `NC(=O)c1c(NC(=O)CCc2ccc(Cl)cc2)sc2c1CCN(C(=O)c1ccc3[nH]c(=O)oc3c1)C2` [Compound 6, 2-[3-(4-Chloro-phenyl)-propionylamino]-6-(2-oxo-2,3-dihydro-benzooxazole-6-carbonyl)-4,5,6,7-tetrahydro-thieno[2,3-c]pyridine-3-carboxylic acid amide] stands < 1000 nM; under `CC(C)c1ccc(NC(=O)Nc2sc3c(c2C(N)=O)CCN(C(=O)c2ccc4[nH]c(=O)oc4c2)C3)cc1` [Compound 7, 2-[3-(4-Isopropyl-phenyl)-ureido]-6-(2-oxo-2,3-dihydro-benzooxazole-6-carbonyl)-4,5,6,7-tetrahydro-thieno[2,3-c]pyridine-3-carboxylic acid amide], < 1000 nM; under `NC(=O)c1c(NC(=O)Nc2cc(Cl)cc(Cl)c2)sc2c1CCN(C(=O)c1ccc3[nH]c(=O)oc3c1)C2` [Compound 8, 2-[3-(3,5-Dichloro-phenyl)-ureido]-6-(2-oxo-2,3-dihydro-benzooxazole-6-carbonyl)-4,5,6,7-tetrahydro-thieno[2,3-c]pyridine-3-carboxylic acid amide], < 10000 nM. Same read-out and setting: under `NC(=O)c1c(NC(=O)Cc2ccc(Cl)cc2F)sc2c1CCN(C(=O)c1ccc3[nH]nnc3c1)C2` [Compound 9, 6-(1H-Benzotriazole-5-carbonyl)-2-[2-(4-chloro-2-fluoro-phenyl)-acetylamino]-4,5,6,7-tetrahydro-thieno[2,3-c]pyridine-3-carboxylic acid amide] stands < 1000 nM; under `NC(=O)c1c(NC(=O)Cc2ccc(Cl)cc2F)sc2c1CCN(C(=O)c1ccc3[nH]c(=O)oc3c1)C2` [Compound 10, 2-[2-(4-Chloro-2-fluoro-phenyl)-acetylamino]-6-(2-oxo-2,3-dihydro-benzooxazole-6-carbonyl)-4,5,6,7-tetrahydro-thieno[2,3-c]pyridine-3-carboxylic acid amide], < 1000 nM. Same read-out and setting: under `NC(=O)c1c(NC(=O)Cc2cccc(Cl)c2)sc2c1CCN(C(=O)c1ccc3[nH]nnc3c1)C2` [Compound 11, 6-(1H-Benzotriazole-5-carbonyl)-2-[2-(3-chloro-phenyl)-acetylamino]-4,5,6,7-tetrahydro-thieno[2,3-c]pyridine-3-carboxylic acid amide] stands < 1000 nM. In the case of `NC(=O)c1c(NC(=O)Nc2cc(Cl)cc(Cl)c2)sc2c1CCN(C(=O)c1ccc3[nH]nnc3c1)C2` [Compound 12, 6-(1H-Benzotriazole-5-carbonyl)-2-[3-(3,5-dichloro-phenyl)-ureido]-4,5,6,7-tetrahydro-thieno[2,3-c]pyridine-3-carboxylic acid amide], the IC50 is < 10000 nM. Still for that read-out and setting: the same measure for `NC(=O)c1c(NC(=O)Cc2cccc(Cl)c2)sc2c1CCN(C(=O)c1ccc3[nH]c(=O)oc3c1)C2` [Compound 13, 2-[2-(3-Chloro-phenyl)-acetylamino]-6-(2-oxo-2,3-dihydro-benzooxazole-6-carbonyl)-4,5,6,7-tetrahydro-thieno[2,3-c]pyridine-3-carboxylic acid amide]: < 1000 nM; for `NC(=O)c1c(NC(=O)Cc2ccc(Cl)cc2)sc2c1CCN(C(=O)c1ccc3[nH]c(=O)oc3c1)C2` [Compound 14, 2-[2-(4-Chloro-phenyl)-acetylamino]-6-(2-oxo-2,3-dihydro-benzooxazole-6-carbonyl)-4,5,6,7-tetrahydro-thieno[2,3-c]pyridine-3-carboxylic acid amide]: < 1000 nM; for `NC(=O)c1c(NC(=O)Nc2ccc(Cl)cc2F)sc2c1CCN(C(=O)c1ccc3[nH]nnc3c1)C2` [Compound 15, 6-(1H-Benzotriazole-5-carbonyl)-2-[3-(4-chloro-2-fluoro-phenyl)-ureido]-4,5,6,7-tetrahydro-thieno[2,3-c]pyridine-3-carboxylic acid amide]: < 1000 nM. Turning to `NC(=O)c1c(NC(=O)Cc2ccc(Cl)cc2F)sc2c1CCN(Cc1cccnc1)C2` [Compound 16, 2-[2-(4-Chloro-2-fluoro-phenyl)-acetylamino]-6-pyridin-3-ylmethyl-4,5,6,7-tetrahydro-thieno[2,3-c]pyridine-3-carboxylic acid amide], the IC50 was < 30000 nM. Regarding `NC(=O)c1c(NC(=O)Cc2ccc(Cl)cc2F)sc2c1CCN(Cc1ccccn1)C2` [Compound 17, 2-[2-(4-Chloro-2-fluoro-phenyl)-acetylamino]-6-pyridin-2-ylmethyl-4,5,6,7-tetrahydro-thieno[2,3-c]pyridine-3-carboxylic acid amide], the “% CTRL (1E−05)” value is reported as 66%. For `NC(=O)c1c(NC(=O)Nc2ccc(Cl)cc2)sc2c1CCN(Cc1ccccn1)C2` [Compound 18, 2-[3-(4-Chloro-phenyl)-ureido]-6-pyridin-2-ylmethyl-4,5,6,7-tetrahydro-thieno[2,3-c]pyridine-3-carboxylic acid amide], the “% CTRL (1E−05)” value is on record as 88%. As for `NC(=O)c1c(NC(=O)Nc2ccc(Cl)cc2)sc2c1CCN(C(=O)c1cccnc1)C2` [Compound 19, 2-[3-(4-Chloro-phenyl)-ureido]-6-(pyridine-3-carbonyl)-4,5,6,7-tetrahydro-thieno[2,3-c]pyridine-3-carboxylic acid amide], the IC50 was < 10000 nM.

For `NC(=O)c1c(NC(=O)Nc2ccc(Cl)cc2)sc2c1CCN(Cc1ccncc1)C2` [Compound 20, 2-[3-(4-Chloro-phenyl)-ureido]-6-pyridin-4-ylmethyl-4,5,6,7-tetrahydro-thieno[2,3-c]pyridine-3-carboxylic acid amide], the IC50 was < 10000 nM.
